{"source": "patent US6485708B1", "about": "“Products and methods for the remineralization and prevention of demineralization of teeth” (Church & Dwight Co. Inc., priority 1999, dated 2002)", "origin": "cited, not measured here", "settings": "aqueous solution, pH about 7.0, about 25° C.", "data": [{"smiles": "O.O.O=P([O-])([O-])O.[Ca+2]", "note": "[dicalcium phosphate dihydrate]", "values": [{"measurement": "calcium cations released", "value": "about 40 ppm"}]}]}
